Assays:
[1] = system: SKBR3 breast tumor cells; assay: Uptake assay in SKBR3 breast tumor cells; type: cell-based, human; conditions: average of two assays, variance 5-20%
Protocol: (§1) The cell uptake assay protocol was developed by Delmon-Moingeon et al.^10 Breast tumor cells (SKBR3) were incubated in media over a 2 hr time course with each test sample. This line has been identified as having high membrane potential and has been characterized for uptake of ^99m Tc-sestamibi. […] The first time point (10 min.) was used to compare compounds, as this was felt to represent the non-equilibrium kinetics of delivery experienced in vivo.

[2] = system: A549 lung tumor cells; assay: Uptake assay in A549 lung tumor cells; type: cell-based; conditions: average of two assays, variance 5-20%
Protocol: [Worded in the source for another cell line; this cell line is reported under the same test.] as §1

[3] = system: HBL100 nontransformed breast cells; assay: Uptake assay in HBL100 nontransformed breast cells; type: cell-based; conditions: average of two assays, variance 5-20%
[4] = system: SKBR3 human breast tumor cells vs CV-1 normal epithelial cells; assay: Washout assay: retention in an adherent cell assay, ratio of tumor (SKBR3)/normal (CV-1); type: cell-based; conditions: for Retention, ratio of tumor/normal 99mTc activity: SKBR3/CV-1, mean of 4 slips per cell line
Protocol: (§2) Two cell lines are grown on cover slips: SKBR3 human breast tumor with known high membrane potential, and an epithelial cell line (CV1) of low membrane potential. Breast tumor cells (SKBR3) and normal epithelial cells (CV-1) are grown on cover slips (5×10^5 cells) and incubated for 60 min with 100 μCi of ^99m Tc-isonitrile. The slips are then incubated for 120 min in nonisotopic medium with repeated rinses. ^99m Tc activity remaining on the slips is determined at 0, 0.5, 1, 1.5, and 2 hr. Results are expressed as the ratio of tumor/normal ^99m Tc activity at each of the times. Values are the mean of 4 slips per cell line.
The washout assay characterizes the retention of compounds having gained access to the cell. A significant feature of this assay is that each cover slip was given a cell count at the end of the assay, and results were corrected for actual cell density. Because of high nonspecific binding to the coverslips, early times during washout are not meaningful, and so actual uptake and pharmacokinetics during the first phase of washout are not available. The results, however, are useful in predicting prolonged retention of compounds after blood levels have cleared.

[5] = system: breast tumors in c-neu oncomice; assay: Pairwise imaging in the c-neu oncomouse; type: in vivo, mouse; conditions: for Mean of Tumor Ratio Test/99mTc-sestamibi +/- Std Dev: paired imaging, c-neu oncomice, 6 animals (14 tumors), ** p < .01
Excerpt: The pairwise model was designed to directly compare the images of ^99m Tc-TBI with ^99m Tc-sestamibi. The same mouse was imaged at two separate times within 96 hr of each other with the test compound at one time and ^99m Tc-sestamibi at the other. The order of test and reference compound injected were random, but each study included at least an n=2 in each direction.
Female c-neu oncomice (18-30 g) and FVB wildtype mice were used in the pairwise studies. Mice with breast tumors between 1-15 mm were selected for imaging. Animals were anesthetized with sodium pentobarbital (IP) at a dose of 80 mg/kg. Tumors were measured with dial calipers and recorded on mouse templates. The tail was immersed in hot water for 1-2 min, wiped with alcohol, and injected via the tail vein (28 gauge insulin needle) with […] (0.15mL) of prepared ^99m Tc-TBI. The mouse was secured in a supine position on the dissection board with limbs and head extended to expose the chest area for optimal imaging of breast tumors. All image acquisitions were performed using a Picker Digital Dyna Gamma Camera, a Siemens MicroDelta terminal/MAXDELTA system, and a custom-made 1 mm pinhole collimator mounted on the gamma camera. The general static acquisition protocol was employed, using an acquisition matrix of 256×256 pixels, in word mode. The mouse was placed at a distance of 3 cm from the surface of the dissection board to the bottom of the collimator. The anterior view of the upper torso of the animal was acquired at each time point. Consecutive images were collected starting at 10 min post injection. Six 10 min images were collected at the 3 cm distance and one 10 min image was collected of the whole body at 15 cm to determine any tail vein activity. […] Total activity injected was determined by measuring the syringe before and after injection, then corrected for decay back to the time of injection. The pairwise images within each study were normalized for injected dose and regions of interest were taken over breast tumors and the heart. The mean ratio of ^99m Tc-TBI to ^99m Tc-sestamibi in the tumor was reported.

[6] = system: SKBR3 tumor cells; assay: Tumor cell washout kinetics (t1/2); type: cell-based, human; conditions: washout from SKBR3 cells; for 1/2 life SKBR3 Tumor Cells: second phase of biphasic kinetics
Protocol: as §2
The half lives were also calculated for the washout of ^99m Tc-isonitriles from SKBR3 cells.

[7] = system: breast adenocarcinomas in c-neu oncomice; assay: Dual label whole body autoradiography and histochemistry; type: in vivo, mouse; conditions: c-neu OncoMouse, whole body autoradiography
Protocol: The test compound was given i.v. to a transgenic c-neu mouse (OncoMouse™). This mouse has been genetically constructed to spontaneously produce breast tumors. The tumors develop with the same cribriform pattern as observed in human tumors and have a similar pattern of blood supply.
Female c-neu oncomice bearing breast adenocarcinomas >0.5 cm in diameter were injected i.v. with 1-3 mCi of ^99m Tc-TBI and 5 μCi of C-14 2-deoxy-D-glucose. The mice were sacrificed at 30 min post injection by CO2 inhalation. The carcass was embedded and frozen in embedding medium and 20μ frozen sections were obtained in a cryotome. Autoradiograms of sections and standards were obtained on Kodak SB5 X-ray film. Adjacent sections (5μ) were obtained and stained with hemotoxylin and eosin (H&E). Images were digitized on a LOATS video-based computerized densitometer, and regions of intersect were obtained (% ID/g).

[8] = system: breast tumors; conditions: J. Nucl. Med. 1993, 34:149P; cited from earlier work
[9] = system: heart; conditions: Example 5 of Bergstein et al, U.S. Pat. No. 4,988,827; compared with ether isonitriles; cited from earlier work

Compound | Uptake (% of total) ([1]; SKBR3, 10 minutes) | Uptake (% of total) ([1]; SKBR3, 20 minutes) | Uptake (% of total) ([1]; SKBR3, 60 minutes) | Uptake (% of total) ([2]; A549, 10 minutes) | Uptake (% of total) ([2]; A549, 20 minutes) | Uptake (% of total) ([2]; A549, 60 minutes) | Uptake (% of total) ([3]; HBL100, 10 minutes) | Uptake (% of total) ([3]; HBL100, 20 minutes) | Uptake (% of total) ([3]; HBL100, 60 minutes) | Retention, ratio of tumor/normal 99mTc activity ([4]; washout time 0 hr) | Retention, ratio of tumor/normal 99mTc activity ([4]; washout time 0.5 hr) | Retention, ratio of tumor/normal 99mTc activity ([4]; washout time 1 hr) | Retention, ratio of tumor/normal 99mTc activity ([4]; washout time 1.5 hr) | Retention, ratio of tumor/normal 99mTc activity ([4]; washout time 2 hr) | Mean of Tumor Ratio Test/99mTc-sestamibi +/- Std Dev [5] | 1/2 life SKBR3 Tumor Cells [6] | further results
[C-]#[N+]CC(C)(C)OC.[C-]#[N+]CC(C)(C)OC.[C-]#[N+]CC(C)(C)OC.[C-]#[N+]CC(C)(C)OC.[C-]#[N+]CC(C)(C)OC.[C-]#[N+]CC(C)(C)OC.[Tc] [MIBI, reference compound] | 1.8% | 4.5% | 17.2% | 0.7% | 2.5% | 7.3% | 0.9% | 3.4% | 8.8% | 38 | 36 | 34 | 29 | 26 | 1 | 120.5 | correlation between breast tumor retention and tissue viability [7]: strong correlation; sensitivity for imaging breast tumors [8]: > 90%; specificity for imaging breast tumors [8]: > 70%
^99m Tc-tertiary-butyl isonitrile complex [TBI] | 71.1% | 68.1% | 67% | 49.8% | 45.3% | 43.1% | 61.3% | 62.4% | 64.3% | 12 | 24 | 31 | 35 | 37 | 1.33 +/-0.43 | 656.0 | retention in tumor cells during washout ([4]; tumor cell culture, in words): prolonged retention in tumor cells during washout; tumor uptake and retention in vivo, relative to 99mTc-sestamibi ([5]; in words): significantly increased tumor uptake and retention in vivo; increase in tumor retention/uptake compared with 99mTc-sestamibi ([5]; pairwise imaging, c-neu OncoMouse, p<0.01): 133%; increase in t1/2 (longer retention) compared with 99mTc-sestamibi [6]: 6 fold; heart/liver and heart/lung uptake ratios [9]: low heart/liver and heart/lung uptake ratios

From patent US5961952A, “^99m Tc-tertiary-butyl isonitrile as breast tumor imaging agents” (DuPont Pharmaceuticals Company, priority 1997, dated 1999)
